Several values for one entry are separate records, joined by “and”; a condition that tells them apart may be missing. Identical values can stand only once.
Tests used:
DLD-1 cells = assay: antiproliferation assay, paclitaxel-resistant DLD-1; assay type: cell-based; details: Homo sapiens
Description: (§1) For the antiproliferation assay, NCI-H460 (large cell lung carcinoma) or M14 (amelanotic melanoma) cells were grown in RPMI-1640 with 10% FBS supplemented with L-glutamine and HEPES. Cells were seeded into 96-well plates at 5×10^2 to 5×10^4 cells/well and allowed to adhere overnight; the medium was then removed. A stock solution of test compound in DMSO was diluted in medium to generate a series of working solutions. Aliquots (100 μl) of the working solutions were then added to the appropriate test wells to expose cells to the final concentrations of compound in a total volume of 100 μl. Seven different concentrations were tested, with 2-5 wells per concentration. Camptothecin was used as a positive control; wells containing vehicle without compound were used as negative controls. Plates were kept for 72 h in a 37° C., 5% CO2 incubator. After incubation, viable cells were detected with the CELLTITER 96 AQueous Non-Radioactive Cell Proliferation Assay (Promega), and IC50 values were determined using GraphPad Prism 5 software.
(§2) Compound 4 was tested for antiproliferation activity against several paclitaxel-resistant human cancer cell lines.

[1] = test system: LOX-IMVI (melanoma) xenograft tumors; assay: tumor growth inhibition, LOX-IMVI murine xenograft model; assay type: in vivo, mice
Description: (§3) Tumor growth inhibition of compound 4 was measured in several murine xenograft models, and the results of individual experiments are listed in Table 14. Tumors were initiated by subcutaneous injection of either tumor cells from cell culture or tumor fragments from continuous in vivo passage. When tumors reached volumes between approximately 100 and 200 mm^3, the mice were divided into vehicle and treatment groups. Compound or vehicle was administered by IP injection in a volume of 5-10 mL/kg.
(§4) Changes in tumor weight (delta weights) for each treated (T) and control (C) group are calculated for each day tumors are measured by subtracting the median tumor weight on the first day of treatment (staging day) from the median tumor weight on the specified observation day. These values are used to calculate a percent T/C as follows: % T/C=(delta T/delta C)×100. The optimal T/C is the minimal value obtained after the first treatment.

NCI/ADR-RES cells = assay: antiproliferation assay, NCI/ADR-RES; assay type: cell-based; details: Homo sapiens
Description: as §1
(§5) Antiproliferation of several of the active compounds was tested against additional cell lines.
as §2

LOX-IMVI cells = assay: antiproliferation assay, LOX-IMVI; assay type: cell-based; details: Homo sapiens
Description: as §1, §5

ACHN cells = assay: antiproliferation assay, paclitaxel-resistant ACHN; assay type: cell-based; details: Homo sapiens
Description: as §1, §2

UO-31 cells = assay: antiproliferation assay, paclitaxel-resistant UO-31; assay type: cell-based; details: Homo sapiens
Description: as §1, §2

[2] = test system: NCI-H727 xenograft tumors; assay: tumor growth inhibition, NCI-H727 murine xenograft model; assay type: in vivo, mice; details: IP 40 mg/kg, days 0,1,2,5,6,7,10,11,12
Description: as §3, §4

[3] = test system: NCI-H460 (lung) xenograft tumors; assay: tumor growth inhibition, NCI-H460 murine xenograft model; assay type: in vivo, mice
Description: as §3, §4

OVCAR-8 cells = assay: NCI-60 panel antiproliferation, OVCAR-8; assay type: cell-based, human; details: Homo sapiens, NCI 60-cell panel
Description: (§6) Bifidenone and Compound 37 were tested for antiproliferation activity against the NCI-60 panel of cancer cell lines. COMPARE analysis was then conducted to compare the activity “fingerprint” of bifidenone to those of known classes of compounds (Zhou, B.-N., Hoch, J. M., Johnson, R. K., Mattern, M. R., Eng, W.-K., Ma, J., Hecht, S. M., Newman, D. J., Kingston, D. G. I., 2000. Use of COMPARE Analysis to Discover New Natural Product Drugs: Isolation of Camptothecin and 9-Methoxycamptothecin from a New Source. Journal of Natural Products 63, 1273-1276.).

Caki-1 cells = assay: NCI-60 panel antiproliferation, Caki-1; assay type: cell-based, human; details: Homo sapiens, NCI 60-cell panel
Description: as §6

EKVX cells = assay: NCI-60 panel antiproliferation, EKVX; assay type: cell-based, human; details: Homo sapiens, NCI 60-cell panel
Description: as §6

CCRF-CEM cells = assay: NCI-60 panel antiproliferation, CCRF-CEM; assay type: cell-based, human; details: Homo sapiens, NCI 60-cell panel
Description: as §6

OVCAR-5 cells = assay: NCI-60 panel antiproliferation, OVCAR-5; assay type: cell-based, human; details: Homo sapiens, NCI 60-cell panel
Description: as §6

MOLT-4 cells = assay: NCI-60 panel antiproliferation, MOLT-4; assay type: cell-based, human; details: Homo sapiens, NCI 60-cell panel
Description: as §6

HOP-92 cells = assay: NCI-60 panel antiproliferation, HOP-92; assay type: cell-based, human; details: Homo sapiens, NCI 60-cell panel
Description: as §6

HL-60 cells = assay: NCI-60 panel antiproliferation, HL-60; assay type: cell-based, human; details: Homo sapiens, NCI 60-cell panel
Description: as §6

SF-539 cells = assay: NCI-60 panel antiproliferation, SF-539; assay type: cell-based, human; details: Homo sapiens, NCI 60-cell panel
Description: as §6

SK-OV-3 cells = assay: NCI-60 panel antiproliferation, SK-OV-3; assay type: cell-based, human; details: Homo sapiens, NCI 60-cell panel
Description: as §6

OVCAR-4 cells = assay: NCI-60 panel antiproliferation, OVCAR-4; assay type: cell-based, human; details: Homo sapiens, NCI 60-cell panel
Description: as §6

OVCAR-3 cells = assay: NCI-60 panel antiproliferation, OVCAR-3; assay type: cell-based, human; details: Homo sapiens, NCI 60-cell panel
Description: as §6

SN12C cells = assay: NCI-60 panel antiproliferation, SN12C; assay type: cell-based, human; details: Homo sapiens, NCI 60-cell panel
Description: as §6

SK-Mel-5 cells = assay: NCI-60 panel antiproliferation, SK-MEL-5; assay type: cell-based, human; details: Homo sapiens, NCI 60-cell panel
Description: as §6

DU-145 cells = assay: NCI-60 panel antiproliferation, DU-145; assay type: cell-based, human; details: Homo sapiens, NCI 60-cell panel
Description: as §6

UACC-257 cells = assay: NCI-60 panel antiproliferation, UACC-257; assay type: cell-based, human; details: Homo sapiens, NCI 60-cell panel
Description: as §6

UACC-62 cells = assay: NCI-60 panel antiproliferation, UACC-62; assay type: cell-based, human; details: Homo sapiens, NCI 60-cell panel
Description: as §6

RXF-393 cells = assay: NCI-60 panel antiproliferation, RXF-393; assay type: cell-based, human; details: Homo sapiens, NCI 60-cell panel
Description: as §6

Hs578T cells = assay: NCI-60 panel antiproliferation, Hs578T; assay type: cell-based, human; details: Homo sapiens, Hs-578T, NCI 60-cell panel
Description: as §6

SNB-19 cells = assay: NCI-60 panel antiproliferation, SNB-19; assay type: cell-based, human; details: Homo sapiens, NCI 60-cell panel
Description: as §6

MDA-MB-435 cells = assay: NCI-60 panel antiproliferation, MDA-MB-435; assay type: cell-based, human; details: Homo sapiens, NCI 60-cell panel
Description: as §6

[4] = IP 30 mg/kg, days 0,1,2,3,4,5,6
[5] = IP 30 mg/kg, days 0,1,2,3,5,6,7,8,10,11,12,13
[6] = IP 60 mg/kg, days 0,1,2,5,6,7,10,11,12

C=CC[C@H]1C[C@]2([C@H](C)Cc3cc(O)c(OC)cc3F)OCOC2=CC1=O (relative stereo) [Compound 4, 6-allyl-7a-(1-(2-fluoro-5-hydroxy-4-methoxyphenyl)propan-2-yl)-7,7a-dihydrobenzo[d][1,3]dioxol-5(6H)-one]
IC50 (DLD-1 cells): < 5 nM
Maximum Mean Body Weight Loss ([1]; IP 30 mg/kg, days 0,1,2,3,4,5): 7%
Optimal T/C ([1]; IP 30 mg/kg, days 0,1,2,3,4,5): 31%
Maximum Mean Body Weight Loss [1, 4]: 6%
Optimal T/C [1, 4]: 36%
Maximum Mean Body Weight Loss ([1]; IP 40 mg/kg, days 0,1,2,5,6,7): 9%
Optimal T/C ([1]; IP 40 mg/kg, days 0,1,2,5,6,7): 39%
IC50 (NCI/ADR-RES cells): 9.1 nM
IC50 (NCI/ADR-RES cells; paclitaxel-resistant NCI/ADR-RES): 9 nM
IC50 (LOX-IMVI cells): 11 nM
IC50 (ACHN cells): 15 nM
IC50 (UO-31 cells): 7 nM
Maximum Mean Body Weight Loss [2]: 0%
Optimal T/C [2]: 30%
Maximum Mean Body Weight Loss [3, 5]: 7%
Optimal T/C [3, 5]: 42%
Maximum Mean Body Weight Loss ([3]; IP 40 mg/kg, days 0,1,2,5,6,7,10,11,12 (two experiments)): 7%
Optimal T/C ([3]; IP 40 mg/kg, days 0,1,2,5,6,7,10,11,12 (two experiments), 40 mg/kg): 29% and 35%
Maximum Mean Body Weight Loss [3, 6]: 9%
Optimal T/C [3, 6]: 40%

C=CC[C@H]1C[C@]2([C@@H](C)Cc3ccc(OC)c(F)c3)OCOC2=CC1=O [Compound 37, (6S,7aR)-6-allyl-7a-((S)-1-(3-fluoro-4-methoxyphenyl)propan-2-yl)-7,7a-dihydrobenzo[d][1,3]dioxol-5(6H)-one]
IC50 (OVCAR-8 cells): 110 nM
IC50 (Caki-1 cells): 97 nM
IC50 (EKVX cells): 149 nM
IC50 (CCRF-CEM cells): 60 nM
IC50 (OVCAR-5 cells): 119 nM
IC50 (MOLT-4 cells): 97 nM
IC50 (HOP-92 cells): > 10000 nM
IC50 (HL-60 cells): 36 nM
IC50 (SF-539 cells): 74 nM
IC50 (SK-OV-3 cells): 39 nM
IC50 (OVCAR-4 cells): 117 nM
IC50 (OVCAR-3 cells): 40 nM
IC50 (SN12C cells): 350 nM
IC50 (SK-Mel-5 cells): 60 nM
IC50 (DU-145 cells): 187 nM
IC50 (UACC-257 cells): 43 nM
IC50 (UACC-62 cells): 35 nM
IC50 (RXF-393 cells): 95 nM
IC50 (Hs578T cells): 72 nM
IC50 (SNB-19 cells): 73 nM
IC50 (MDA-MB-435 cells): 28 nM

Source: US9562031B1, “Phenethyldihydrobenzodioxolones and methods of use” (Sequoia Sciences, Inc., priority 2015, dated 2017)
